Measured values: PMC9189845, “Structure–Activity Relationships of 8-Hydroxyquinoline-Derived Mannich Bases with Tertiary Amines Targeting Multidrug-Resistant Cancer” (Journal of Medicinal Chemistry, 2022)
Where a name gives a salt, the structure may show the parent alone. Read-outs that look alike come from different tables or passages of the source.

How the values were obtained:
[1] = UV-visible spectrophotometric titrations (pKa); type: physicochemical; details: water with 0.2% (v/v) DMSO, 25 °C
Protocol: Spectrophotometrical determination of pKa values was performed as previously reported.[20],[50] An Agilent Cary 8454 diode array spectrophotometer was used to record the UV–visible spectra in the interval 200–800 nm. The path length was between 1 and 5 cm. The spectrophotometric titrations were performed in water with 0.2% (v/v) DMSO on samples containing the compounds at 2–50 μM in the pH range from 2 to 11.5 at 25.0 ± 0.1 °C at an ionic strength of 0.10 M (KCl). Proton dissociation constants and the individual spectra of the species in the different protonation states were calculated with the computer program PSEQUAD.[62]

[2] = tested on: A431 cells; experiment: PrestoBlue viability assay, A431 cells
[3] = tested on: MES-SA cells; experiment: PrestoBlue viability assay, MES-SA cells
[4] = tested on: A431-B1 cells; experiment: PrestoBlue viability assay, A431-B1 (A431-ABCB1) cells
[5] = tested on: MES-SA/Dx5 cells; experiment: PrestoBlue viability assay, MES-SA/Dx5 cells (MDR, P-gp positive); details: for SR_TQ: selectivity ratio MES-SA vs MES-SA/Dx5, with TQ; for SR: selectivity ratio MES-SA vs MES-SA/Dx5, without TQ
[6] = 0.2% DMSO, I = 0.10 M KCl, read-out: pKa (OH), experimentally determined
[7] = quinolinium nitrogen, I = 0.10 M KCl, read-out: pKa (NquinH+), experimentally determined
[8] = Homo sapiens, A-431, 72 h, read-out: IC50 / µM A431, 72 h incubation
[9] = Homo sapiens, A-431, read-out: pIC50 A431, SARM figure (converted)
[10] = Homo sapiens, MES-SA, 72 h, read-out: IC50 / μM MES-SA, absence of TQ, 72 h incubation
[11] = Homo sapiens, MES-SA, read-out: IC50 / μM MES-SA (values in parentheses), presence of 1 μM P-gp inhibitor tariquidar (TQ)
[12] = Homo sapiens, MES-SA, read-out: pIC50 MES-SA, absence of TQ (converted), SARM figure
[13] = Homo sapiens, MES-SA, read-out: pIC50 value MES-SA+TQ, MES-SA cells, with TQ (converted)
[14] = Homo sapiens, MES-SA, read-out: pIC50 value MES-SA, MES-SA cells, without TQ (converted)
[15] = read-out: IC50 / μM MES-SA, absence of TQ, 72 h incubation
[16] = 72 h, read-out: IC50 / µM A431-B1, 72 h incubation
[17] = read-out: pIC50 A431-B1, SARM figure (converted)
[18] = Homo sapiens, MES-SA/Dx5, 72 h, read-out: IC50 / μM MES-SA/Dx5, absence of TQ, 72 h incubation
[19] = Homo sapiens, MES-SA/Dx5, read-out: IC50 / μM MES-SA/Dx5 (values in parentheses), presence of 1 μM P-gp inhibitor tariquidar (TQ)
[20] = Homo sapiens, MES-SA/Dx5, read-out: pIC50 value MES-SA/Dx5 + TQ, MES-SA/Dx5 cells, with TQ (converted)
[21] = Homo sapiens, MES-SA/Dx5, read-out: pIC50 value MES-SA/Dx5, MES-SA/Dx5 cells, without TQ (converted)
[22] = read-out: IC50 / μM MES-SA/Dx5, absence of TQ, 72 h incubation
[23] = piperidinium / pyrrolidinium / morpholinium N, read-out: pKa (other; N+amH alkylamine nitrogen), experimentally determined

| Structure (SMILES) | melting point [°C] | pKa [1, 6] | pKa [1, 7] | IC50 [2, 8] [µM] | IC50 [2, 9] [µM] | IC50 [3, 10] [µM] | IC50 [3, 11] [µM] | IC50 [3, 13] [µM] | IC50 [3, 14] [µM] | IC50 [4, 16] [µM] | IC50 [4, 17] [µM] | IC50 [5, 18] [µM] | IC50 [5, 19] [µM] | IC50 [5, 20] [µM] | IC50 [5, 21] [µM] | SR_TQ [5] | SR [5] | pKa [1, 23] | other results |
| --- | --- | --- | --- | --- | --- | --- | --- | --- | --- | --- | --- | --- | --- | --- | --- | --- | --- | --- | --- |
| Oc1cc2c(cc1O)CN(Cc1ccc3cccnc3c1O)CC2 (as salt: hydrochloride) [Compound 82, 2-((8-Hydroxy-quinolin-7-yl)methyl)-1,2,3,4-tetrahydroisoquinoline-6,7-diol Hydrochloride] | 203 to 206 | – | – | – | – | – | – | – | – | – | – | – | – | – | – | – | – | – | – |
| CN1CCN(Cc2cc(Cl)c3cccnc3c2O)CC1 [Compound 9] | – | 9.63 ± 0.03 | 3.56 ± 0.03 | 17 ± 1.04 | 14.5 | 5.86 ± 0.98 | 5.14 | 5.13 | 5.37 | 3.55 ± 0.5 | 6.31 | 1.59 ± 0.27 | 4.3 | 4.27 | 1.86 | 1.19 | 2.84 | – | pKa ([1]; read-out: pKa (NpiperaziniumH+ at methyl / N-ethyl), experimentally determined): 5.61 ± 0.03; IC50 ([2]; read-out: IC50 / µM A431, 72 h incubation): 15.9 ± 7.44 µM; IC50 [3, 12]: 5.75 µM; IC50 ([3]; Homo sapiens, MES-SA, read-out: pIC50 MES-SA_TQ, presence of 1 μM TQ (converted), SARM figure): 10 µM; IC50 [3, 15]: 5.39 ± 0.47 µM; IC50 ([4]; read-out: IC50 / µM A431-B1, 72 h incubation): 6.67 ± 2.4 µM; IC50 ([5]; Homo sapiens, MES-SA/Dx5, read-out: pIC50 Dx5, absence of TQ (converted), SARM figure): 1.55 µM; IC50 ([5]; Homo sapiens, MES-SA/Dx5, read-out: pIC50 Dx5_TQ, presence of 1 μM TQ (converted), SARM figure): 6.76 µM; IC50 [5, 22]: 1.9 ± 0.37 µM |
| CCOCc1cc(CN2CCCC2)c(O)c2ncccc12 [Compound 18] | – | 7.89 ± 0.03 | 2.49 ± 0.03 | 35.2 ± 11.5 | 33.1 | 8.61 ± 1.31 | 8.73 ± 0.54 | 8.71 | 8.51 | 5.92 ± 2.14 | 5.62 | 0.93 ± 0.18 | 5.25 ± 0.18 | 5.25 | 0.912 | 1.66 | 9.27 | 11.21 ± 0.03 | – |
| Oc1c(CN2CCCCC2)cc(Cl)c2cccnc12 [Compound 19] | – | 5.8 ± 0.03 | < 2 | 6.67 ± 1.69 | 6.46 | 2.49 ± 0.39 | 3.38 | 3.39 | 2.45 | 1.69 ± 0.27 | 1.66 | 0.29 ± 0.05 | 2.58 | 2.57 | 0.282 | 1.31 | 8.71 | > 11 | IC50 [3, 12]: 2.24 µM |
| Oc1c(CN2CCCCC2)cc(Br)c2cccnc12 [Compound 20, 5-Bromo-7-(piperidin-1-ylmethyl)quinolin-8-ol] | – | 7.16 ± 0.03 | 1.8 ± 0.1 | 6.91 ± 1.37 | 6.76 | 1.79 ± 0.16 | 1.71 | 1.7 | 1.78 | 2.16 ± 0.35 | 1.58 | 0.17 ± 0.02 | 1.32 ± 0.08 | 1.32 | 0.166 | 1.29 | 10.67 | > 11 | IC50 [3, 15]: 1.78 ± 0.17 µM; IC50 ([5]; read-out: IC50 / μM MES-SA/Dx5 (values in parentheses), presence of 1 μM P-gp inhibitor tariquidar (TQ)): 1.33 µM; IC50 [5, 22]: 0.16 ± 0.02 µM |
| CC(C)OCc1cc(CN2CCCCC2)c(O)c2ncccc12 [Compound 24] | – | 7.66 ± 0.03 | 2.43 ± 0.03 | 7.53 ± 1 | 7.41 | 6.03 ± 0.29 | 5.76 ± 0.15 | 5.75 | 6.03 | 1.91 ± 0.18 | 1.91 | 0.48 ± 0.04 | 4.37 ± 0.24 | 4.37 | 0.479 | 1.32 | 12.57 | > 11 | – |
| Oc1c(CN2CCN(c3ccccc3)CC2)cc(Cl)c2cccnc12 [Compound 38] | – | 6.21 ± 0.03 | 1.7 ± 0.1 | 7.38 ± 1.23 | 7.24 | 3.42 ± 1.17 | 3.57 ± 1.18 | 3.39 | 3.24 | 6.31 ± 2.64 | 5.75 | 0.59 ± 0.26 | 1.87 ± 0.75 | 1.74 | 0.537 | 1.91 | 5.84 | – | pKa ([1]; read-out: pKa (NpiperaziniumH+ closer to quinoline ring), experimentally determined): 10.1 ± 0.03 |
| CN1CCN(Cc2ccc3ccccc3c2O)CC1 [Compound 70, 2-((4-Methylpiperazin-1-yl)methyl)naphthalen-1-ol] | 79 to 81 | – | – | – | – | > 100 | – | – | – | – | – | > 100 | – | – | – | – | – | – | – |
| CN1CCN(Cc2cnc3ccccc3c2O)CC1 [Compound 71, 3-((4-Methylpiperazin-1-yl)methyl)quinolin-4-ol] | 164 to 166 | – | – | – | – | 94.9 ± 2.02 | – | – | 95.5 | – | – | 91 | – | – | 91.2 | – | 1.04 | – | – |
| Oc1c(CN2CCc3ccccc3C2)cc(Br)c2cccnc12 [Compound 81, 5-Bromo-7-((3,4-dihydroisoquinolin-2(1H)-yl)methyl)quinolin-8-ol] | 156 to 159 | – | – | – | – | 2.23 ± 0.15 | 2.45 | 1.78 | 2.29 | – | – | 0.34 ± 0.05 | 1.48 | – | 0.363 | 1.82 | 6.23 | – | SR (MES-SA / MES-SA/Dx5) ([5]; fraction of IC50 in P-gp negative vs positive cells, absence of TQ): 6.50; SR (MES-SA_TQ / Dx5_TQ) (values in parentheses) ([5]; fraction of IC50 in P-gp negative vs positive cells, presence of 1 μM TQ): 1.66 |
| Oc1c(C(c2cccnc2)N2CCCCC2)ccc2cccnc12 (stereo not shown) [Compound 92, 7-((Piperidine-1-yl)(pyridin-3-yl)methyl)quinolin-8-ol] | 178 to 179 | – | – | – | – | 13.65 ± 0.12 | – | – | 13.5 | – | – | 8.58 ± 0.38 | – | – | 8.51 | – | 1.59 | – | – |
